Data reported in paper PMC4917206, “Chemical Modification of Influenza CD8+ T-Cell Epitopes Enhances Their Immunogenicity Regardless of Immunodominance” (PLoS ONE, 2016).

Molecular target: T1, HLA-A*0201 (Homo sapiens, UniProt P04439, D140Y/D185E/D98H/E176V/E277Q/G131W/G231S/I119V/I121R/I166T/I218V/L300P/L318F/N151K/N90K/P208A/P217A/Q86G/Q94H/R138H/R169H/T345S)
T1 construct: Soluble MHC was dissolved in PBS containing 0.5 mg/ml bovine γ-globulin; made in house
Format: binding
Conditions: not given

Row | Substance | FP binding score, percentage inhibition of tracer peptide binding, 4h | FP binding score, percentage inhibition of tracer peptide binding, 24h
1 | [BCA][2-AOC]YSDFHFI [F112] | 92% | 91%
2 | [SOME]MLSTVLGV [N61] | 62% | 54%

Molecular target: T2, HLA-A*0301 (Homo sapiens, UniProt P04439)
T2 construct: Soluble MHC was dissolved in PBS containing 0.5 mg/ml bovine γ-globulin; made in house
Format: binding
Conditions: not given

Row | Substance | FP binding score, percentage inhibition of tracer peptide binding, 4h | FP binding score, percentage inhibition of tracer peptide binding, 24h
3 | S[NVA]SFGG[NLE]TK [S68] | 79% | 93%
4 | I[AHA]RGSV[2-FUR]HK [I79] | 77% | 90%
5 | SF[4-FPHE]FGGFTK [S84] | 82% | 95%
6 | S[NVA][CSME]FGGFTK [S93] | 80% | 93%
7 | R[AHA]VLSAF[4-FPHE]ER [R68] | 67% | 64%
8 | R[AHA]VLSAFDEK [R2] | 58% | 67%
9 | RM[OrnN2]LSAFDER [R83] | 71% | 72%
10 | S[NVA]RFGGFTK [S53] | 80% | 93%
11 | I[OrnN2]RGSVAHK [I49] | 71% | 90%
12 | S[NVA]SFGG[2-AOC]TK [S70] | 90% | 96%
13 | R[NVA]VLSAF[4-FPHE]ER [R72] | 68% | 72%
14 | R[NVA]VLSAFDKR [R59] | 62% | 68%
15 | RMVLSAF[CpALA]ER [R42] | 65% | 73%
16 | I[AHA]RGSV[NLE]HK [I74] | 77% | 92%
17 | I[AHA][SOME]GSVAHK [I85] | 69% | 88%
18 | I[AHA]RGSV[CSET]HK [I73] | 74% | 90%
19 | [2-AOC][NLE]RGSVAHK [I60] | 72% | 91%
20 | RMVLSAFDER [R WT, reference compound] | 18% | 6%
21 | ILRGSVAHK [I WT, reference compound] | 66% | 87%
22 | S[NVA][NLE]FGGFTK [S94] | 80% | 93%
23 | I[AHA][CpALA]GSVAHK [I83] | 70% | 89%

Row | Substance | FP binding score, percentage inhibition of tracer peptide binding, 4h | FP binding score, percentage inhibition of tracer peptide binding, 24h
24 | S[NVA]SFGG[4-FPHE]TK [S72] | 79% | 93%
25 | I[AHA][PRG]GSVAHK [I84] | 71% | 89%
26 | S[NVA]SFGG[CpALA]TK [S74] | 78% | 94%
27 | I[AHA][2-AOC]GSVAHK [I59] | 71% | 91%
28 | RMVLSAF[2-AOC]ER [R38] | 69% | 75%
29 | S[NVA]SFGG[BPG]TK [S73] | 73% | 91%
30 | [2-AOC][AHA]RGSVAHK [I17] | 61% | 89%
31 | [AHA][NLE]RGSVAHK [I53] | 73% | 91%
32 | RMVLSAF[4-FPHE]ER [R40] | 63% | 57%
33 | I[AHA][NLE]GSVAHK [I58] | 68% | 89%
34 | RMVLSAF[PRG]ER [R39] | 62% | 62%
35 | ILRGSV[NLE]HK [I63] | 74% | 89%
36 | R[NVA]VLSAF[SOME]ER [R70] | 64% | 74%
37 | R[NVA]VLSAF[2-AOC]ER [R71] | 71% | 82%
38 | S[NVA]SFGG[2-FUR]TK [S76] | 75% | 91%
39 | RMVLSAF[NLE]ER [R36] | 66% | 73%
40 | RMVLSAF[AHA]ER [R81] | 71% | 76%
41 | [CSME][AHA]RGSVAHK [I61] | 71% | 90%
42 | S[NVA]SFGG[NVA]TK [S69] | 72% | 91%
43 | S[NVA][CpALA]FGGFTK [S96] | 76% | 91%
44 | S[NVA]SFGGFHK [S56] | 78% | 91%

Row | Substance | FP binding score, percentage inhibition of tracer peptide binding, 4h | FP binding score, percentage inhibition of tracer peptide binding, 24h
45 | S[NVA][4-FPHE]FGGFTK [S95] | 80% | 93%
46 | RMVLSAFDEK [R4] | 61% | 69%
47 | S[NVA]SFGGF[AHA]K [S90] | 78% | 90%
48 | S[NVA]SFGGF[TOME]K [S92] | 80% | 92%
49 | I[AHA][4-FPHE]GSVAHK [I87] | 73% | 91%
50 | SFSFGGFTK [S WT, reference compound] | 67% | 58%
51 | S[NVA][2-AOC]FGGFTK [S50] | 83% | 94%
52 | I[AHA][CHA]GSVAHK [I89] | 75% | 91%
53 | IL[4-FPHE]GSVAHK [I94] | 70% | 89%
54 | I[AHA][CSME]GSVAHK [I86] | 71% | 89%
55 | RMVLSAF[CSET]ER [R37] | 60% | 60%
56 | R[AHA]VLSAF[2-AOC]ER [R67] | 74% | 78%
57 | S[AHA]RFGGFTK [S54] | 80% | 92%
58 | S[NVA]SFGG[PRG]TK [S71] | 70% | 90%
59 | RMVLSAF[ORN]ER [R41] | 65% | 63%
60 | I[AHA]RGSV[CpALA]HK [I77] | 71% | 89%
61 | ILRGSV[2-AOC]HK [I65] | 87% | 94%
62 | S[NVA][AHA]FGGFTK [S52] | 80% | 93%
63 | R[AHA]VLSAF[SOME]ER [R66] | 63% | 63%
64 | RM[2-AOC]LSAFDER [R50] | 70% | 66%
65 | RM[4-FPHE]LSAFDER [R55] | 70% | 65%

Same assay, conditions: after 4h

Row | Substance | FP binding score HLA-A*0301, percentage inhibition, 4h
66 | RMVLSAF[PRG]ER [R39] | 62%
67 | RMVLSAF[CSET]ER [R37] | 60%
68 | R[AHA]VLSAF[SOME]ER [R66] | 63%

Same assay, conditions: after 24h

Row | Substance | FP binding score HLA-A*0301, percentage inhibition, 24h
69 | RMVLSAF[PRG]ER [R39] | 62%
70 | RMVLSAF[CSET]ER [R37] | 60%
71 | R[AHA]VLSAF[SOME]ER [R66] | 63%

Test system: splenocytes of WT-vaccinated HLA-A2 tg mice
Format: cell-based, mouse
Conditions: not given

Row | Substance | Mouse splenocytes (ex vivo assay), Average
72 | [BCA][2-AOC]YSDFHFI [F112] | 86
73 | [SOME]MLSTVLGV [N61] | 348
